The text below walks through data of patent US10538555B2, “Macrocyclic inhibitors of the PD-1/PD-L1 and CD80(B7-1)/PD-L1 protein/protein interactions” (BRISTOL-MYERS SQUIBB COMPANY, priority 2014, dated 2020).

The structures appear in SMILES notation. Where two headings read alike, the source gives them in different places. Where a SMILES comes first, the peptide text is derived from it. Bridges are numbered along the chain shown (N, C = ends). [ ]: non-standard residue; d: D form. ξ: configuration not given here. Trp(1-CH2COOH) = N[C@@H](Cc1cn(CC(=O)O)c2ccccc12)C(=O)O; Trp(βS-Me) = C[C@@H](c1c[nH]c2ccccc12)[C@H](N)C(=O)O; Phe(3,4,5-F3) = N[C@@H](Cc1cc(F)c(F)c(F)c1)C(=O)O; Phe(3,4-F2) = N[C@@H](Cc1ccc(F)c(F)c1)C(=O)O; Morpholine(3S-CO) = O=C(O)[C@@H]1COCCN1; Phe(4-F) = N[C@@H](Cc1ccc(F)cc1)C(=O)O; d(cisHyp) = O=C(O)[C@H]1C[C@@H](O)CN1; NMeIle(3ξ) = CCC(C)[C@H](NC)C(=O)O; Hyp = O=C(O)[C@@H]1C[C@@H](O)CN1; NMeF = CN[C@@H](Cc1ccccc1)C(=O)O; dHyp = O=C(O)[C@H]1C[C@H](O)CN1; NMehSer = CN[C@@H](CCO)C(=O)O; NMeNle = CCCC[C@H](NC)C(=O)O; Tle = CC(C)(C)[C@H](N)C(=O)O; dPip = O=C(O)[C@H]1CCCCN1; NMeA = CN[C@@H](C)C(=O)O; Dab = NCC[C@H](N)C(=O)O; Dap = NC[C@H](N)C(=O)O; ξC = NC(CS)C(=O)O

The assay has as its target T1, Human PD-L1/PD-1 (Homo sapiens, UniProt Q9NZQ7).
T1 construct: TVMV protease cleavage site (C); made in house; host or cells: HEK293T cells
Description: HTRF Human PD-L1/PD-1 binding assay (PD-1-Ig/PD-L1-His). As to conditions: PD-L1-His 10 nM, PD-1-Ig 20 nM. The method, boiled down: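 Compound preincubated 15 min with PD-L1-His (10 nM final), then PD-1-Ig (20 nM final) added for 15 min in dPBS with 0.1% BSA and 0.05% Tween-20. Detection by Eu-cryptate anti-Ig (1 nM) and APC anti-His (20 nM) after 30 min; 665/620 nm HTRF ratio. Proteins expressed in HEK293T.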
In general terms: In TR-FRET formats the signal depends on donor and acceptor labels being close together.

[1] abbreviates: class symbol, read-out: HTRF Human PD-L1/PD-1 Binding Assay IC50 Range.
Where [2] appears, read: read-out: HTRF Human PD-L1/PD-1 Binding Assay IC50.

T1 sequence (Q9NZQ7 with tags, fused parts or gaps): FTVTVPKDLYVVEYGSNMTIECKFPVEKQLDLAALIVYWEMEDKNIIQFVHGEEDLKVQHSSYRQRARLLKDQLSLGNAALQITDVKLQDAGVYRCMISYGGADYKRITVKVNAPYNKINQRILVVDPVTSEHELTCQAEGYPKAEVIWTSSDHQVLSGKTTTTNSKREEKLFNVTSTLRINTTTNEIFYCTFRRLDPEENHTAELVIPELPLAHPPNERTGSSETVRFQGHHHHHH

For `CCCC[C@H]1C(=O)N2C[C@H](O)C[C@@H]2C(=O)N[C@@H](CC(=O)O)C(=O)N[C@@H](C(C)C)C(=O)N(C)[C@@H](Cc2ccccc2)C(=O)N[C@@H](CCC(N)=O)C(=O)N2C[C@H](O)C[C@@H]2C(=O)N[C@@H](Cc2c[nH]c3ccccc23)C(=O)N[C@@H](Cc2ccc(O)cc2)C(=O)N[C@@H](CC(C)C)C(=O)N[C@H](C(=O)NCC(N)=O)CSCC(=O)N[C@@H](Cc2cc(F)c(F)c(F)c2)C(=O)N(C)[C@@H](Cc2ccccc2)C(=O)N1C` [Example 9320] ({CH2CO}-[Phe(3,4,5-F3)][NMeF][NMeNle][d(cisHyp)]DV[NMeF]Q[d(cisHyp)]WYLCG-NH2; thioether N-13), under setting [1], the IC50 lay in the range of 1 to 9.9 nM.

With `CCCC[C@H]1C(=O)N(C)[C@@H](CCCC)C(=O)N[C@@H](C)C(=O)N[C@H](C(=O)NCC(N)=O)CSCC(=O)N[C@@H](Cc2ccc(O)cc2)C(=O)N(C)[C@@H](C)C(=O)N[C@@H](CC(N)=O)C(=O)N2CCC[C@H]2C(=O)N[C@@H](Cc2cnc[nH]2)C(=O)N[C@@H](CCC(N)=O)C(=O)N2CCOC[C@H]2C(=O)N[C@@H](Cc2c[nH]c3ccccc23)C(=O)N[C@@H](CO)C(=O)N[C@@H](Cc2c[nH]c3ccccc23)C(=O)N1C` [Example 1279], the IC50 under setting [1] was 10 to 99.9 nM.

On to `CCCC[C@H]1C(=O)N2CCC[C@@H]2C(=O)N[C@@H](CC(=O)O)C(=O)N[C@@H](C(C)(C)C)C(=O)N(C)[C@@H](Cc2ccccc2)C(=O)N[C@@H](Cc2ccc(O)cc2)C(=O)N2CCCC[C@@H]2C(=O)N[C@@H](Cc2c[nH]c3ccccc23)C(=O)N[C@@H](Cc2ccc(O)cc2)C(=O)N[C@@H](CC(C)C)C(=O)N[C@H](C(=O)NCC(N)=O)CSCC(=O)N[C@@H](Cc2cc(F)c(F)c(F)c2)C(=O)N(C)[C@@H](Cc2ccccc2)C(=O)N1C` [Example 3222] ({CH2CO}-[Phe(3,4,5-F3)][NMeF][NMeNle][dP]D[Tle][NMeF]Y[dPip]WYLCG-NH2; thioether N-13), for which the IC50 under setting [2] was 4.5 nM.

As to `CCCC[C@H]1C(=O)N2CCC[C@@H]2C(=O)N[C@@H](CC(=O)O)C(=O)N[C@@H](C(C)C)C(=O)N(C)[C@@H](C(C)CC)C(=O)N[C@@H](Cc2ccc(O)cc2)C(=O)N2CCCC[C@@H]2C(=O)N[C@@H](Cc2c[nH]c3ccccc23)C(=O)N[C@@H](Cc2ccc(O)cc2)C(=O)N[C@@H](CC(C)C)C(=O)N[C@H](C(=O)NCC(N)=O)CSCC(=O)N[C@@H](Cc2ccc(F)cc2)C(=O)N(C)[C@@H](Cc2ccccc2)C(=O)N1C` (some centres unmarked) [Example 9258] ({CH2CO}-[Phe(4-F)][NMeF][NMeNle][dP]DV[NMeIle(3ξ)]Y[dPip]WYLCG-NH2; thioether N-13), under setting [2], the IC50 was 7280 nM.

As for `CCCC[C@H]1C(=O)N(C)[C@@H](CCCC)C(=O)N[C@@H](CC(C)C)C(=O)N[C@H](C(=O)NCC(N)=O)CSCC(=O)N[C@@H](Cc2ccc(O)cc2)C(=O)N(C)[C@@H](C)C(=O)N[C@@H](CC(=O)O)C(=O)N2CCC[C@H]2C(=O)N[C@@H](CN)C(=O)N[C@@H](CC(C)C)C(=O)N2CCC[C@H]2C(=O)N[C@@H](Cc2c[nH]c3ccccc23)C(=O)N[C@@H](CCN)C(=O)N[C@@H](Cc2cn(CC(=O)O)c3ccccc23)C(=O)N1C` [Example 6283] ({CH2CO}-Y[NMeA]DP[Dap]LPW[Dab][Trp(1-CH2COOH)][NMeNle][NMeNle]LCG-NH2; thioether N-14), the IC50 under setting [1] fell in the range of 1 to 9.9 nM.

On to `COCC[C@H]1C(=O)N2C[C@@H](O)C[C@@H]2C(=O)N[C@@H](CC(=O)O)C(=O)N[C@@H](C(C)C)C(=O)N(C)[C@@H](Cc2ccccc2)C(=O)N[C@@H](Cc2ccc(OC)cc2)C(=O)N2C[C@@H](O)C[C@@H]2C(=O)N[C@@H](Cc2c[nH]c3ccccc23)C(=O)N[C@@H](Cc2ccc(O)cc2)C(=O)N[C@@H](CC(C)C)C(=O)N[C@H](C(=O)NCC(N)=O)CSCC(=O)N[C@@H](Cc2ccc(F)c(F)c2)C(=O)N(C)[C@@H](Cc2ccccc2)C(=O)N1C` [Example 9235] ({CH2CO}-[Phe(3,4-F2)][NMeF][NMehSer](Me)[dHyp]DV[NMeF]Y(Me)[dHyp]WYLCG-NH2; thioether N-13), for which, under setting [1], the IC50 lay in the range of 1 to 9.9 nM.

With `CCCC[C@H]1C(=O)N(C)[C@@H](CCCC)C(=O)N[C@@H](CC(C)C)C(=O)N[C@H](C(=O)NCC(N)=O)CSCC(=O)N[C@@H](Cc2ccc(O)cc2)C(=O)N(C)[C@@H](C)C(=O)N[C@@H](CC(N)=O)C(=O)N2CCC[C@H]2C(=O)N[C@@H](Cc2c[nH]cn2)C(=O)N[C@@H](CCC(N)=O)C(=O)N2C[C@H](O)C[C@H]2C(=O)N[C@@H]([C@@H](C)c2c[nH]c3ccccc23)C(=O)N[C@@H](CO)C(=O)N[C@@H](Cc2c[nH]c3ccccc23)C(=O)N1C` [Example 10554] ({CH2CO}-Y[NMeA]NPHQ[Hyp][Trp(βS-Me)]SW[NMeNle][NMeNle]LCG-NH2; thioether N-14), the IC50 under setting [1] fell in the range of 1 to 9.9 nM.

Consider `CCCC[C@H]1C(=O)N(C)[C@@H](CCCC)C(=O)N[C@@H](C)C(=O)N[C@H](C(=O)NCC(N)=O)CSCC(=O)N[C@@H](Cc2ccc(O)cc2)C(=O)N2CCOC[C@H]2C(=O)N[C@@H](CC(=O)O)C(=O)N2CCC[C@H]2C(=O)N[C@@H](CN)C(=O)N[C@@H](CC(C)C)C(=O)N2C[C@H](O)C[C@H]2C(=O)N[C@@H](Cc2c[nH]c3ccccc23)C(=O)N[C@@H](CO)C(=O)N[C@@H](Cc2c[nH]c3ccccc23)C(=O)N1C` [Example 1522] ({CH2CO}-Y[Morpholine(3S-CO)]DP[Dap]L[Hyp]WSW[NMeNle][NMeNle]ACG-NH2; thioether N-14), for which the IC50 under setting [1] is 10 to 99.9 nM.

For the molecule `CCCC[C@H]1C(=O)N(C)[C@@H](CCCC)C(=O)N[C@@H](CCC(=O)O)C(=O)NC(C(=O)NCC(N)=O)CSCC(=O)N[C@@H](Cc2ccc(O)cc2)C(=O)N(C)[C@@H](C)C(=O)N[C@@H](CC(N)=O)C(=O)N2CCC[C@H]2C(=O)N[C@@H](Cc2c[nH]cn2)C(=O)N[C@@H](CC(N)=O)C(=O)N2C[C@H](O)C[C@H]2C(=O)N[C@@H](Cc2c[nH]c3ccccc23)C(=O)N[C@@H](CO)C(=O)N[C@@H](Cc2c[nH]c3ccccc23)C(=O)N1C` (some centres unmarked) [Example 9171] ({CH2CO}-Y[NMeA]NPHN[Hyp]WSW[NMeNle][NMeNle]E[ξC]G-NH2; thioether N-14), under setting [1], the IC50 was in the range of 1 to 9.9 nM.

Turning to `CCCC[C@H]1C(=O)N(C)[C@@H](CCCC)C(=O)N[C@@H](CCCNC(=N)N)C(=O)N[C@H](C(=O)NCC(N)=O)CSCC(=O)N[C@@H](Cc2ccc(F)cc2)C(=O)N(C)[C@@H](C)C(=O)N[C@@H](CC(N)=O)C(=O)N2CCC[C@H]2C(=O)N[C@@H](Cc2cnc[nH]2)C(=O)N[C@@H](CCC(=O)O)C(=O)N2C[C@H](O)C[C@H]2C(=O)N[C@@H](Cc2c[nH]c3ccccc23)C(=O)N[C@@H](CCN)C(=O)N[C@@H](Cc2c[nH]c3ccccc23)C(=O)N1C` [Example 7081] ({CH2CO}-[Phe(4-F)][NMeA]NPHE[Hyp]W[Dab]W[NMeNle][NMeNle]RCG-NH2; thioether N-14), the IC50 under setting [1] was in the range of 1 to 9.9 nM.

In the case of `CCCC[C@H]1C(=O)N(C)[C@@H](CCCC)C(=O)N[C@@H](CCC(=O)O)C(=O)N[C@H](C(=O)NCC(N)=O)CSCC(=O)N[C@@H](Cc2ccc(OC)cc2)C(=O)N(C)[C@@H](C)C(=O)N[C@@H](CC(=O)O)C(=O)N2CCC[C@H]2C(=O)N[C@@H](Cc2cnc[nH]2)C(=O)N[C@@H](CCC(=O)O)C(=O)N2C[C@H](O)C[C@H]2C(=O)N[C@@H](Cc2c[nH]c3ccccc23)C(=O)N[C@@H](CC(=O)O)C(=O)N[C@@H](Cc2c[nH]c3ccccc23)C(=O)N1C` [Example 7125] ({CH2CO}-Y(Me)[NMeA]DPHE[Hyp]WDW[NMeNle][NMeNle]ECG-NH2; thioether N-14), the IC50 under setting [1] was in the range of 10 to 99.9 nM.
